Source: patent publication US4002733A, “Sunscreening compositions” (Minnesota Mining and Manufacturing Company, priority 1974, dated 1977)

Assay: UV absorption of the product in solution (absorption maximum, Epsilon value)
Assay type: physicochemical
Settings: solvent not stated

- absorption maxima: 292 nm
- molar extinction coefficient (Epsilon value): 48,000
SMILES: CCC(=O)c1ccc(NC(=O)CCCCCCCCC(=O)Nc2ccc(C(=O)CC)cc2)cc1 [Example 4]
